Measurements published in paper doi:10.1101/2022.03.05.483025v1 (biorxiv, 2022).
pIC50: −log10 of the molar value. Read-outs that look alike come from different tables or passages of the source.

Assays:
[1] = molecular target: T1, SARS-CoV-2 Mpro (Severe acute respiratory syndrome coronavirus 2, UniProt P0DTD1); assay: rhodamine-based substrate peptide activity assay; assay type: biochemical
[2] = molecular target: T2, SARS-CoV-1 Mpro (Severe acute respiratory syndrome-related coronavirus, UniProt P0C6X7); assay: biochemical
[3] = molecular target: T3, MERS-CoV Mpro (Betacoronavirus England 1, UniProt K9N7C7); assay: biochemical
[4] = molecular target: T4, HCoV-229E Mpro (Human coronavirus 229E, UniProt P0C6X1); assay: biochemical
Target sequence in this assay (P0C6X1 2966-3267): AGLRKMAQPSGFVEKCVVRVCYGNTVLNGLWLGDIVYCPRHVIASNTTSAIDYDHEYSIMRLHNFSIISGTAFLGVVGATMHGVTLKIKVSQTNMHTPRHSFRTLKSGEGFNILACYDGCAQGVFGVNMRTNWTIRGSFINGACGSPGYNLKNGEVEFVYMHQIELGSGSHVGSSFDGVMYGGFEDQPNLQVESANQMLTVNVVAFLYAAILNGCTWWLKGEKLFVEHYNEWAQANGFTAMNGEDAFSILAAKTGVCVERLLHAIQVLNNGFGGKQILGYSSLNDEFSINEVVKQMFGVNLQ

[5] = molecular target: T5, PorCoV-HKU15 Mpro (Porcine coronavirus HKU15, UniProt H9BQY4); conditions: covalent
[6] = molecular target: T6, HCoV-HKU1 Mpro (Human coronavirus HKU1 (isolate N1), UniProt P0C6X2); assay: biochemical
Target sequence in this assay (P0C6X2 3335-3637): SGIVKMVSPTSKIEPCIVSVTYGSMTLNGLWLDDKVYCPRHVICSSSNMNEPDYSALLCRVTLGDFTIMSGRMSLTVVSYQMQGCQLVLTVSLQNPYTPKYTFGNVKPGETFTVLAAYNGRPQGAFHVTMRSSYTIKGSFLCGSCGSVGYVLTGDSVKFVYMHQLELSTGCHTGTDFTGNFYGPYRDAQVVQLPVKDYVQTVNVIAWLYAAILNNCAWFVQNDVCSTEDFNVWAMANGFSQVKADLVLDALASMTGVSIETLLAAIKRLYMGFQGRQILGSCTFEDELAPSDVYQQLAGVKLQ

[7] = molecular target: T7, HCoV-NL63 Mpro (Human coronavirus NL63, UniProt P0C6X5); assay: biochemical
Target sequence in this assay (P0C6X5 2940-3242): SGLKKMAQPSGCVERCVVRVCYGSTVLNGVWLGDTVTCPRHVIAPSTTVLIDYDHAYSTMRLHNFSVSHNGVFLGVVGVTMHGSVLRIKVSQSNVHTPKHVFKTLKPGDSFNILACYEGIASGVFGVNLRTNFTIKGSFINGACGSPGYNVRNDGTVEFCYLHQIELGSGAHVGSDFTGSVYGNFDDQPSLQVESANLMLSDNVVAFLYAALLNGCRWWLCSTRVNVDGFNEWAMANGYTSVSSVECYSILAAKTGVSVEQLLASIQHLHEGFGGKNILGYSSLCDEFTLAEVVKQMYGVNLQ

[8] = molecular target: T1, SARS-CoV-2 Mpro; assay: biochemical
[9] = molecular target: T3, MERS-CoV Mpro; assay: biochemical; remark: listed apart in the source
[10] = molecular target: T5, PorCoV-HKU15 Mpro; conditions: covalent; remark: listed apart in the source
[11] = molecular target: T7, HCoV-NL63 Mpro; assay: biochemical; remark: listed apart in the source
Target sequence in this assay (P0C6X5 2940-3242 limits assumed): as the sequence (P0C6X5 2940-3242) above

[12] = molecular target: T4, HCoV-229E Mpro; assay: biochemical; remark: listed apart in the source
Target sequence in this assay (P0C6X1 2966-3267 limits assumed): as the sequence (P0C6X1 2966-3267) above

[13] = molecular target: T3, MERS-CoV Mpro; assay: biochemical; remark: listed apart in the source
[14] = molecular target: T1, SARS-CoV-2 Mpro; assay: biochemical; remark: listed apart in the source
[15] = molecular target: T6, HCoV-HKU1 Mpro; assay: biochemical; remark: listed apart in the source
Target sequence in this assay (P0C6X2 3335-3637 limits assumed): as the sequence (P0C6X2 3335-3637) above

[16] = molecular target: T1, SARS-CoV-2 Mpro; assay: Mpro substrate activity assay; assay type: biochemical
[17] = molecular target: T6, HCoV-HKU1 Mpro; assay: RapidFire MS substrate peptide activity assay; assay type: biochemical
Target sequence in this assay (P0C6X2 3335-3637): as above

[18] = molecular target: T7, HCoV-NL63 Mpro; assay: RapidFire MS substrate peptide activity assay; assay type: biochemical
Target sequence in this assay (P0C6X5 2940-3242): as the sequence (P0C6X5 2940-3242) above

[19] = molecular target: T2, SARS-CoV-1 Mpro; assay: biochemical; remark: listed apart in the source
[20] = molecular target: avian infectious bronchitis virus (IBV) Mpro (Avian infectious bronchitis virus (strain Beaudette), UniProt P0C6Y1); assay: RapidFire MS substrate peptide activity assay; assay type: biochemical
[21] = molecular target: HCoV-OC43 Mpro (Human coronavirus OC43, UniProt P0C6X6); assay: RapidFire MS substrate peptide activity assay; assay type: biochemical
[22] = molecular target: T1, SARS-CoV-2 Mpro; assay: RapidFire MS substrate peptide activity assay; assay type: biochemical
[23] = molecular target: T4, HCoV-229E Mpro; assay: RapidFire MS substrate peptide activity assay; assay type: biochemical
Target sequence in this assay (P0C6X1 2966-3267): as the sequence (P0C6X1 2966-3267) above

[24] = read-out: PM-2-27A (trans), covalent
[25] = read-out: hidden head, 8th column, covalent
[26] = read-out: HW-1-87A (trans), covalent
[27] = read-out: PM-2-20A (trans), covalent

T3 sequence (K9N7C7 3248-3553 limits assumed): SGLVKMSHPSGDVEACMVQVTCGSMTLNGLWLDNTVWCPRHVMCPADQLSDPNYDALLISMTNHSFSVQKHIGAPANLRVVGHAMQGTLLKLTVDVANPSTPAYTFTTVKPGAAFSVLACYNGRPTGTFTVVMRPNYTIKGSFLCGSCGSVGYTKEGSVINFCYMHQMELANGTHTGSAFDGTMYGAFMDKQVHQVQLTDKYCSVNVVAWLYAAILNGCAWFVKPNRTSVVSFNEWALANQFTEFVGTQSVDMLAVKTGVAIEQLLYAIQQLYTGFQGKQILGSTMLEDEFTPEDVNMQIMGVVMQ
T5 sequence (H9BQY4 2509-2811 limits assumed): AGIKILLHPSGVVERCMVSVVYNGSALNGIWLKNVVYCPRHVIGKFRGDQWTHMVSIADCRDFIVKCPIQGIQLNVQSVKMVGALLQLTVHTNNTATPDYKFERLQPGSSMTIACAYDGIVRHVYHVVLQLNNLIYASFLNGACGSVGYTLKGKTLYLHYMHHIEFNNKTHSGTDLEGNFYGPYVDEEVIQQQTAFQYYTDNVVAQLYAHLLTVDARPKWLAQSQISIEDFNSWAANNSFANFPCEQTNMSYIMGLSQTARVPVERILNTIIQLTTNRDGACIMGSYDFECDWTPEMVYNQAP
HCoV-OC43 Mpro, sequence (P0C6X6 3247-3549): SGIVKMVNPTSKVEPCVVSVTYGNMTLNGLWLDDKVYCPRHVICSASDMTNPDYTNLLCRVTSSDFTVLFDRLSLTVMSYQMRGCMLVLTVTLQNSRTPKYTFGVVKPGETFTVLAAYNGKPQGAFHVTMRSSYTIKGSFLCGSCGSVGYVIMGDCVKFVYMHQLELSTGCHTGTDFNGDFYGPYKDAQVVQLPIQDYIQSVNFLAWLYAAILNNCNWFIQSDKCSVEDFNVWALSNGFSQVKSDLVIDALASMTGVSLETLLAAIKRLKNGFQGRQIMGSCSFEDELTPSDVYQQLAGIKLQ
avian infectious bronchitis virus (IBV) Mpro, sequence (P0C6Y1 2780-3086): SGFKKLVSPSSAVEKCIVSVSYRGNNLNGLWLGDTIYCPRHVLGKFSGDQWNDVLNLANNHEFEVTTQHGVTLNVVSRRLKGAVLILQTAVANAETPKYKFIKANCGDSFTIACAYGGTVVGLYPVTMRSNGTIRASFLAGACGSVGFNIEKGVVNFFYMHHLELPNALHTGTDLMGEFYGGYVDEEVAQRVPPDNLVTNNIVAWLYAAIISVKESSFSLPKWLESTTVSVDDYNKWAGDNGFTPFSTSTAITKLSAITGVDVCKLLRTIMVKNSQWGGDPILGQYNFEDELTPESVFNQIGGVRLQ

## O=C(CCl)N1N=C(c2ccccc2)CC1c1cccc2nccnc12 (racemic) [EN82]
[1]
  pIC50: 7.04
[2]
  pIC50: 7.23
[3]
  pIC50: 6.25

## O=C(CCl)N1N=C(c2ccccc2)[C@H](c2ccccc2)[C@@H]1c1ccccc1 (relative stereo) [PM-2-020B, cis-PM-02-020B]
[4]
  pIC50: 7.64
[1]
  pIC50: 7.21
[5]; read-out: PM-2-20B (cis)
  pIC50: 5.96
[6]
  pIC50: 6.70
[7]
  pIC50: 6.46
[8]
  pIC50: 8.28
[9]
  pIC50: 5.55

## O=C(CCl)N1N=C(c2ccccc2)[C@H](c2ccccc2)[C@H]1c1cccc2nccnc12 (relative stereo) [PM-2-27A (trans)]
[10]; read-out: PM-2-27A (trans)
  pIC50: 5.27
[11]; [24]
  pIC50: 7.04
[12]; [24]
  pIC50: 7.34
[13]; [24]
  pIC50: 5.48
[14]; [24]
  pIC50: 6.96
[15]; [24]
  pIC50: 7.22

## C=CS(=O)(=O)N1N=C(c2cc(Cl)ccc2F)[C@H](c2ccccc2)[C@@H]1c1ccc2nccnc2c1 (relative stereo) [PM-2-071B]
[1]
  pIC50: 7.04

## O=C(CCl)N1N=C(c2ccccc2)C[C@H]1c1cccc2nccnc12 [(S)-EN82]
[16]
  pIC50: 5.57

## O=C(CCl)N1N=C(c2ccccc2)[C@H](c2ccccc2)[C@@H]1c1ccc2nccnc2c1 (relative stereo) [HW-1-187B, cis-HW-1-187B]
[4]
  pIC50: 8.64
[1]
  pIC50: 7.66
[5]; read-out: HW-1-187B (cis)
  pIC50: 5.20
[6]
  pIC50: 7.80
[7]
  pIC50: 7.25
[8]
  pIC50: 8.85
[9]
  pIC50: 5.89

## C=CS(=O)(=O)N1N=C(c2cc(Cl)ccc2F)[C@@H](c2ccccc2)[C@H]1c1ccc2nccnc2c1 [(S,S)-PM-2-071, (S,S)-enantiomer of PM-2-071B]
[1]
  pIC50: 7.46

## O=C(CCl)N1N=C(c2cccc(Cl)c2)CC1c1cccc2nccnc12 (stereo not drawn) [LEB-2-172]
[11]
  pIC50: 7.96
[12]
  pIC50: 8.26
[13]
  pIC50: 7.42
[14]
  pIC50: 9.05
[15]
  pIC50: 9.02

## O=C(CCl)N1N=C(c2ccccc2)CC1c1ccnc2[nH]ccc12 (stereo not drawn) [NJH-1-159]
[10]; read-out: hidden head, 8th column
  pIC50: 5.03
[11]; [25]
  pIC50: 6.96
[12]; [25]
  pIC50: 7.72
[13]; [25]
  pIC50: 6.02
[14]; [25]
  pIC50: 7.70
[15]; [25]
  pIC50: 8.05

## O=C(CCl)N1N=C(c2cc(Cl)ccc2F)[C@H](c2ccccc2)[C@@H]1c1ccc2nccnc2c1 (relative stereo) [HW-2-010B]
[1]
  pIC50: 7.85

## O=C(CCl)N1N=C(c2ccccc2)CC1c1cccnc1 (stereo not drawn) [NJH-1-147]
[10]; read-out: hidden head, 7th column
  pIC50: 4.96
[11]
  pIC50: 6.48
[12]
  pIC50: 7.27
[13]
  pIC50: 5.14
[14]
  pIC50: 7.24
[15]
  pIC50: 7.59

## O=C(CCl)N1N=C(c2ccccc2)[C@H](c2ccccc2)[C@H]1c1ccc2nccnc2c1 (relative stereo) [HW-1-87A (trans)]
[10]; read-out: HW-1-87A (trans)
  pIC50: 5.31
[11]; [26]
  pIC50: 6.85
[12]; [26]
  pIC50: 7.52
[13]; [26]
  pIC50: 6.47
[14]; [26]
  pIC50: 7.07
[15]; [26]
  pIC50: 7.40

## C=CS(=O)(=O)N1N=C(c2cc(Cl)ccc2F)C(c2ccccc2)C1c1ccc2nccnc2c1 (stereo not drawn) [PM-2-071]
[17]
  pIC50: > 8.70
[18]
  pIC50: > 6.00
[19]
  pIC50: > 6.00
[20]
  pIC50: > 6.00
[21]
  pIC50: > 8.70
[22]
  pIC50: > 8.70
[23]
  pIC50: > 6.00

## O=C(CCl)N1N=C(c2ccccc2)[C@H](c2ccccc2)[C@H]1c1ccccc1 (relative stereo) [PM-2-20A (trans)]
[10]; read-out: PM-2-20A (trans)
  pIC50: 5.32
[11]; [27]
  pIC50: 7.17
[12]; [27]
  pIC50: 8.44
[13]; [27]
  pIC50: 5.43
[14]; [27]
  pIC50: 7.55
[15]; [27]
  pIC50: 7.44

## O=C(CCl)N1N=C(c2cc(F)cc(Cl)c2)CC1c1cccc2nccnc12 (stereo not drawn) [LEB-3-004]
[10]; read-out: LEB-3-004
  pIC50: 5.68
[11]
  pIC50: 7.60
[12]
  pIC50: 8.28
[13]
  pIC50: 7.00
[14]
  pIC50: 8.80
[15]
  pIC50: 8.64
